# From ChEMBL document CHEMBL1201862, “PubChem BioAssay data set” (2004)
#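 Values below derive from 48-hour exposures of cells grown in 96-well plates, with endpoints linearly interpolated between the two concentrations bracketing the appropriate inhibition level. GI50 = concentration required for 50% inhibition of growth.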 The source made the active and inactive calls. Rule as the data show it: active = GI50 up to about 1.1 µM and inactive = higher.
# Columns and labels:
# Assay in all cases: growth of human tumour cells (NCI), 48 h
# [1] = system: UACC-257
# [2] = system: SF-295
# [3] = system: SW-620
# [4] = system: OVCAR-3
# [5] = system: SN12C
# [6] = system: HCT-116
# [7] = system: U-251
# [8] = system: UACC-62
# [9] = system: A498
# [10] = system: HOP-62
# [11] = system: OVCAR-4
# [12] = system: SK-MEL-28
# [13] = system: SNB-75
# [14] = system: SR
# [15] = system: NCI-H226
Structure (SMILES),GI50 [1],GI50 [2],GI50 [3],GI50 [4],GI50 [5],GI50 [6],GI50 [7],GI50 [8],GI50 [9],GI50 [10],GI50 [11],GI50 [12],GI50 [13],GI50 [14],GI50 [15]
OC(c1ccccc1)C1CC2C=CC1C2 (stereo not drawn),> 100 µM (inactive),> 100 µM (inactive),> 100 µM (inactive),> 100 µM (inactive),> 100 µM (inactive),> 100 µM (inactive),> 100 µM (inactive),> 100 µM (inactive),> 100 µM (inactive),> 100 µM (inactive),> 100 µM (inactive),> 100 µM (inactive),> 100 µM (inactive),,
COC(=O)C1[C@H](c2ccc3c(c2)OCO3)OC(=O)[C@]1(C(=O)OC)C(=O)c1ccc(OC)c(OC)c1 (stereo partly drawn),40.2 µM (inactive),> 100 µM (inactive),39.3 µM (inactive),75.5 µM (inactive),48.9 µM (inactive),,44.9 µM (inactive),59.7 µM (inactive),> 100 µM (inactive),> 100 µM (inactive),> 100 µM (inactive),,90.4 µM (inactive),34.2 µM (inactive),> 100 µM (inactive)
CN1C(=O)CCC1(O)C1C=CC=CC1 (stereo not drawn),> 100 µM (inactive),> 100 µM (inactive),> 100 µM (inactive),> 100 µM (inactive),> 100 µM (inactive),> 100 µM (inactive),> 100 µM (inactive),> 100 µM (inactive),,> 100 µM (inactive),> 100 µM (inactive),> 100 µM (inactive),> 100 µM (inactive),> 100 µM (inactive),> 100 µM (inactive)
OC12c3ccccc3C1CCCCCCCCCC21OCCCO1 (stereo not drawn),> 100 µM (inactive),> 100 µM (inactive),> 100 µM (inactive),> 100 µM (inactive),> 100 µM (inactive),4.06 µM (inactive),,> 100 µM (inactive),,> 100 µM (inactive),> 100 µM (inactive),> 100 µM (inactive),> 100 µM (inactive),4.73 µM (inactive),> 100 µM (inactive)
CC(=O)Nc1ccc(-c2nnc(SCC(=O)Nc3cccc([N+](=O)[O-])c3)o2)cc1,17.3 µM (inactive),16.8 µM (inactive),13.4 µM (inactive),13.5 µM (inactive),16.1 µM (inactive),14 µM (inactive),14.6 µM (inactive),11.5 µM (inactive),,22.9 µM (inactive),11.6 µM (inactive),16.5 µM (inactive),17.8 µM (inactive),2.87 µM (inactive),10.8 µM (inactive)
Nc1c(Cl)ncnc1NCCCNc1ncnc(Cl)c1N,67 µM (inactive),> 100 µM (inactive),> 100 µM (inactive),> 100 µM (inactive),> 100 µM (inactive),> 100 µM (inactive),> 100 µM (inactive),> 100 µM (inactive),> 100 µM (inactive),> 100 µM (inactive),> 100 µM (inactive),> 100 µM (inactive),,> 100 µM (inactive),> 100 µM (inactive)
CC(C)C1CC(O)O[C@@H]([C@@H](C)[C@H]2CC(=O)[C@@H]3[C@@H]4[C@@H](O)[C@H](O)[C@H]5[C@@H](O)[C@H](O)CC[C@]5(C)[C@H]4CC[C@]23C)C1 (stereo partly drawn),5.06 µM (inactive),47.8 µM (inactive),> 100 µM (inactive),> 100 µM (inactive),28.7 µM (inactive),29.4 µM (inactive),63 µM (inactive),79.4 µM (inactive),,21.2 µM (inactive),> 100 µM (inactive),> 100 µM (inactive),22.2 µM (inactive),> 100 µM (inactive),> 100 µM (inactive)
O=C1NC(=O)C2C(=O)NC(=O)C1C2Cc1ccco1 (stereo not drawn),> 100 µM (inactive),> 100 µM (inactive),> 100 µM (inactive),> 100 µM (inactive),> 100 µM (inactive),,,> 100 µM (inactive),> 100 µM (inactive),,> 100 µM (inactive),> 100 µM (inactive),> 100 µM (inactive),,> 100 µM (inactive)
Cc1nc(N)nc(N)c1CCCc1ccccc1,12.7 µM (inactive),5.18 µM (inactive),4.57 µM (inactive),18.6 µM (inactive),3.65 µM (inactive),2.7 µM (inactive),5.36 µM (inactive),5.55 µM (inactive),,12.1 µM (inactive),18.4 µM (inactive),15.2 µM (inactive),38.3 µM (inactive),4.07 µM (inactive),97.7 µM (inactive)
COc1cc(CNc2ccc(C(C)C)cc2)cc(OC)c1OC,25.8 µM (inactive),,,,17.4 µM (inactive),11.5 µM (inactive),15.4 µM (inactive),16 µM (inactive),30.4 µM (inactive),23.9 µM (inactive),25.3 µM (inactive),27 µM (inactive),23.7 µM (inactive),,
Cc1ccc(S(=O)(=O)OC2CSSCC2OS(=O)(=O)c2ccc(C)cc2)cc1 (stereo not drawn),10.2 µM (inactive),16.2 µM (inactive),14.4 µM (inactive),13.3 µM (inactive),11.3 µM (inactive),13.3 µM (inactive),14 µM (inactive),7.89 µM (inactive),,20.3 µM (inactive),11.2 µM (inactive),16.6 µM (inactive),12.8 µM (inactive),7.69 µM (inactive),17.9 µM (inactive)
COc1ccc(OC)c(/C=C(/C#N)c2ccccc2)c1,,39.4 µM (inactive),6.46 µM (inactive),28.2 µM (inactive),32.6 µM (inactive),49.3 µM (inactive),31.8 µM (inactive),5.32 µM (inactive),20.2 µM (inactive),40.3 µM (inactive),15.9 µM (inactive),23.4 µM (inactive),10.8 µM (inactive),,26.9 µM (inactive)
OC(CCNC12CC3CC(CC(C3)C1)C2)c1ccccc1 (stereo not drawn),> 100 µM (inactive),> 100 µM (inactive),> 100 µM (inactive),> 100 µM (inactive),> 100 µM (inactive),80.7 µM (inactive),> 100 µM (inactive),> 100 µM (inactive),> 100 µM (inactive),> 100 µM (inactive),> 100 µM (inactive),> 100 µM (inactive),75.7 µM (inactive),,> 100 µM (inactive)
CCN(CC)CCC(=O)c1ccccc1,24.2 µM (inactive),,19.6 µM (inactive),18.6 µM (inactive),19.3 µM (inactive),17.3 µM (inactive),23.3 µM (inactive),> 10 µM (inactive),,> 100 µM (inactive),20.5 µM (inactive),16.9 µM (inactive),12.5 µM (inactive),14 µM (inactive),> 100 µM (inactive)
O=S1(=O)OCCOS(=O)(=O)C1Br,> 100 µM (inactive),86.5 µM (inactive),> 100 µM (inactive),> 100 µM (inactive),> 100 µM (inactive),> 100 µM (inactive),,52.2 µM (inactive),> 100 µM (inactive),> 100 µM (inactive),> 100 µM (inactive),> 100 µM (inactive),> 100 µM (inactive),> 100 µM (inactive),< 0.01 µM (active)
Cc1cc2c(cc1C)[n+]([O-])c(C(=O)/C=C/c1ccccc1Cl)c(C)[n+]2[O-],23 µM (inactive),32.1 µM (inactive),35.1 µM (inactive),28.7 µM (inactive),33 µM (inactive),,28.2 µM (inactive),18.3 µM (inactive),36.6 µM (inactive),24.6 µM (inactive),50.7 µM (inactive),26.9 µM (inactive),19.2 µM (inactive),,> 100 µM (inactive)
O=C1CC2CCCCC2=C1O (stereo not drawn),> 100 µM (inactive),> 100 µM (inactive),> 100 µM (inactive),> 100 µM (inactive),> 100 µM (inactive),> 100 µM (inactive),> 100 µM (inactive),> 100 µM (inactive),> 100 µM (inactive),> 100 µM (inactive),> 100 µM (inactive),> 100 µM (inactive),> 100 µM (inactive),,
Sc1nnc(COc2ccc(Cl)cc2Cl)[nH]1,> 100 µM (inactive),> 100 µM (inactive),> 100 µM (inactive),> 100 µM (inactive),> 100 µM (inactive),> 100 µM (inactive),> 100 µM (inactive),> 100 µM (inactive),> 100 µM (inactive),,> 100 µM (inactive),> 100 µM (inactive),> 100 µM (inactive),> 100 µM (inactive),> 100 µM (inactive)
C#CC[C@]12CC(=O)CC[C@H]1CC1(C2)OCCO1,> 100 µM (inactive),,> 100 µM (inactive),> 100 µM (inactive),> 100 µM (inactive),> 100 µM (inactive),> 100 µM (inactive),> 100 µM (inactive),> 100 µM (inactive),> 100 µM (inactive),> 100 µM (inactive),> 100 µM (inactive),> 100 µM (inactive),> 100 µM (inactive),> 100 µM (inactive)
COc1cccc(NC(=O)/C(CS(=O)(=O)CCC(C(C)=O)C(C)=O)=N/NC(C)(C)C)c1,> 100 µM (inactive),,> 100 µM (inactive),> 100 µM (inactive),> 100 µM (inactive),> 100 µM (inactive),> 100 µM (inactive),> 100 µM (inactive),> 100 µM (inactive),> 100 µM (inactive),> 100 µM (inactive),> 100 µM (inactive),> 100 µM (inactive),,> 100 µM (inactive)
N=C(N)SCCc1cn2ccccc2n1,> 100 µM (inactive),> 100 µM (inactive),> 100 µM (inactive),> 100 µM (inactive),> 100 µM (inactive),> 100 µM (inactive),> 100 µM (inactive),,,> 100 µM (inactive),> 100 µM (inactive),> 100 µM (inactive),> 100 µM (inactive),> 100 µM (inactive),> 100 µM (inactive)
